Experimental findings from patent publication US8119630B2 (Arrow Therapeutics Limited, priority 2002, dated 2012) are described below.

One data set has as its system Hep-2 cells. The data set is described as follows: Toxicity studies (XTT), Hep-2 cells. In kind it is cell-based. Also on record: TC50 (6d): unit not given beside the values. The following applies: for TC50 (6d): Table 2, Examples 75 to 82 and 125 to 184, 6d, in µM; for TC50 (2d): Table 2, Examples 75 to 82 and 125 to 184, 2d. In general terms: Formazan colour is commonly taken as a measure of viable cells.

A further data set has as its system RSV. The data set is described as follows: XTT assay, RSV-infected Hep-2 cells. It counts as cell-based, Respiratory Syncytial Virus (RSV). The following applies: Table 2, Examples 75 to 82 and 125 to 184, Hep-2 cells infected with RSV, 6 days at 37° C. The method, boiled down:
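Hep-2 cells (4×10^4/well) infected with RSV titrated for 80% cell kill and treated with 25 μM compound (0.5% DMSO) for 6 days at 37 °C. Viability read by XTT/PMS at OD450 after 1 h; uninfected control set as 100% and infected control as 0% inhibition, with IC50 from graph or regression.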

Where [1] appears, read: human respiratory syncytial virus, 144 h.

One may read the IC50 as the midpoint of a concentration-inhibition curve. Regarding “5-Acetyl-2-ethoxy-N-(2-oxo-5-phenyl-2,3-dihydro-1H-benzo[e][1,4]diazepin-3-yl)-benzamide [Example 76a]”, the “TC50 (6d)” value in the data set with Hep-2 cells is recorded as 64. In the data set with RSV, the IC50 stood at 3.5 µM.
With `COc1ccc(S(N)(=O)=O)cc1C(=O)NC1N=C(c2ccccc2)c2ccccc2NC1=O` (stereo not drawn) [Example 143, 2-Methoxy-N-(2-oxo-5-phenyl-2,3-dihydro-1H-benzo[e][1,4]diazepin-3-yl)-5-sylfamoyl-benzamide], in the data set on Hep-2 cells, the TC50 (2d) is above 50 µM. Also, in the data set with RSV, the IC50 amounted to 3.8 µM.
On to “Cyclohexanecarboxylic acid [5-(3-chloro-phenyl)-2-oxo-5-phenyl-2,3-dihydro-1H-benzo[e][1,4]diazepin-3-yl]-amide [Example 158]”, for which, in the data set with Hep-2 cells, the TC50 (2d) amounted to 100 µM and the “TC50 (6d)” value is recorded as above 100. The molecule also showed an IC50 in the data set on RSV of 2 µM.
In the data set on Hep-2 cells, `COc1cc([N+](=O)[O-])ccc1C(=O)N(C)C1N=C(c2ccccc2)c2ccccc2NC1=O` (stereo not drawn) [Example 147, 2-Methoxy-N-methyl-4-nitro-N-(2-oxo-5-phenyl-2,3-dihydro-1H-benzo[e][1,4]diazepin-3-yl)-benzamide] showed a TC50 (2d) above 50 µM. This molecule returned an IC50 in the data set with RSV (setting [1]) of 15.9 µM.
On to `O=C(NC1N=C(c2ccccc2)c2ccccc2NC1=O)C(=O)c1cccs1` (stereo not drawn) [Example 184, 2-Oxo-N-(2-oxo-5-phenyl-2,3-dihydro-1H-benzo[e][1,4]diazepin-3-yl)-2-thiophene-2-yl-acetamide], for which the TC50 (2d) in the data set on Hep-2 cells is above 50 µM. The molecule also had an IC50 in the data set with RSV (setting [1]) of 9.5 µM.
As to `COC(=O)c1ccc(C(=O)NC2N=C(c3ccccc3)c3ccccc3NC2=O)cc1` (stereo not drawn) [Example 134, N-(2-Oxo-5-phenyl-2,3-dihydro-1H-benzo[e][1,4]diazepin-3-yl)terephthalamic acid methyl ester], in the data set with Hep-2 cells, the “TC50 (6d)” value is reported as 77.1. Besides, it took 6.5 µM to reach half-maximal inhibition with RSV (setting [1]) (IC50).
For `O=C(NC1N=C(c2ccccc2)c2ccccc2NC1=O)c1c(F)cccc1F` (stereo not drawn) [Example 136, 2,6-Difluoro-N (2-oxo-5-phenyl-2,3-dihydro-1H-benzo[e][1,4]diazepin-3-yl)-benzamide], the “TC50 (6d)” value with Hep-2 cells was above 50. Also, in the data set on RSV, 8.7 µM corresponded to half-maximal inhibition (IC50).
`O=C1Nc2ccc(Cl)cc2C(c2ccccc2)=NC1NC(=O)N1CCCCC1` (stereo not drawn) [Example 153, Piperidine-1-carboxylic acid (7-chloro-2-oxo-5-phenyl-2,3-dihydro-1H-benzo[p][1,4]diazepin-3-yl)-amide]: in the data set with Hep-2 cells, the TC50 (2d) was above 100 µM and the “TC50 (6d)” value was above 100. The molecule further came in with a half-maximal inhibitory concentration (IC50) in the data set with RSV of 5 µM.
Turning to `CC(C)(C)OC(=O)NC1N=C(c2ccccc2)c2ccccc2NC1=O` (stereo not drawn) [Example 178, (2-Oxo-5-phenyl-2,3-dihydro-1H-benzo[e][1,4]diazepin-3-yl)carbamic acid tert-butyl ester], in the data set on Hep-2 cells, the “TC50 (6d)” value is listed as above 50. In addition, the IC50 in the data set with RSV (setting [1]) came out at 4.3 µM.
In the case of `O=C(N[C@H]1N=C(c2ccccc2)c2ccccc2NC1=O)c1cccc2cc[nH]c12` [Example 81b], the “TC50 (6d)” value in the data set with Hep-2 cells worked out at 35.6. The molecule also showed an IC50 with RSV of 1.2 µM.
`O=C(NC1N=C(c2ccccc2)c2ccccc2NC1=O)C(O)Cc1ccccc1` (stereo not drawn) [Example 144, 2-Hydroxy-N-(2-oxo-5-phenyl-2,3-dihydro-1H-benzo[e][1,4]diazepin-3-yl)-3-phenyl-propionamide]: in the data set with Hep-2 cells, the TC50 (2d) is above 50 µM. Further, the midpoint of inhibition in the data set with RSV (setting [1]), the IC50, lay at 5.5 µM.
Regarding `COc1cc(N)c(Cl)cc1C(=O)NC1N=C(c2ccccc2)c2ccccc2NC1=O` (stereo not drawn) [Example 140, 4-Amino-5-chloro-2-methoxy-N-(2-oxo-5-phenyl-2,3-dihydro-1H-benzo[e][1,4]diazepin-3-yl)-benzamide], in the data set with Hep-2 cells, the “TC50 (6d)” value is recorded as 68. Half-maximal inhibition with RSV (setting [1]) (IC50) was put at 2.5 µM.
For `COc1cccc(NC(=O)NC2N=C(c3ccccc3)c3ccccc3NC2=O)c1` (stereo not drawn) [Example 129, 1-(3-Methoxy-phenyl)-3-(2-oxo-5-phenyl-2,3-dihydro-1H-benzo[e][1,4]diazepin-3-yl)-urea], in that order: above 50 and 4.9 µM.
For `O=C(NC1N=C(c2ccccc2)c2ccccc2NC1=O)c1cc(F)c(F)cc1F` (stereo not drawn) [Example 79a, 2,4,5-Trifluoro-N-(2-oxo-5-phenyl-2,3-dihydro-1H-benzo[e][1,4]diazopin-3-yl)-benzamide], in the data set on Hep-2 cells, the “TC50 (6d)” value is reported as 65. Moreover, the IC50 in the data set on RSV was 8 µM.
